{"source": "patent US8822646B2", "about": "“Cancer therapies and pharmaceutical compositions used therein” (ProNAi Therapeutics, Inc., priority 2005, dated 2014)", "key": {"Daudi xenografts": {"system": "Daudi xenografts", "experiment": "Efficacy of liposomal PNT-100 and rituximab in Daudi xenografts (Example 11)", "format": "in vivo, mice", "conditions": "doses and schedules of Table 5, FIGS. 7-9", "protocol": "Daudi cells are a model of Burkett's lymphoma. Xenografts with Daudi cells were generated in mice as described in the previous examples. Liposomal PNT-100 was formulated as in example 9 and has similar properties and a concentration of 2.4 mg PNT-100 per ml. The mice were divided into 10 groups and treated as in Table 5.\nTumor volume was caliper measured. Studies were concluded when control animal xenografts reached 2000 mm^3. […] FIG. 8 is a Kaplan-Meyer plot, showing the percent of mice whose tumors have not yet reached 2000 mm^3 each day."}, "WSU-DLCL2 xenografts": {"system": "WSU-DLCL2 xenografts", "experiment": "Efficacy of liposomal PNT-100 and rituximab in WSU-DLCL2 xenografts (Example 10)", "format": "in vivo, C.B-17 SCID mice", "conditions": "rituximab 20 mg/kg days 2 and 5; liposomal PNT-100 daily for five days; i.v.", "protocol": "Xenografts with WSU-DLCL2 cells were generated in C.B-17 SCID mice between 4-6 weeks old as described in the previous examples. […] Human pharmaceutical grade rituximab (Biogen Idec-Genentech) was provided by Karmanos Cancer Institute. The mice were treated as in Table 4. [table] Animals were checked three times weekly for tumor growth by caliper measurements. An approximate tumor volume was calculated using the formula ½(a×b^2), where b is the smaller of two perpendicular diameters. Animals were sacrificed when individual animal tumor burden reached 2000 mm^3 or when the study was concluded 81 days post tumor trocar."}, "[1]": {"system": "WSU-DLCL2 human diffuse large cell lymphoma", "experiment": "Inhibition of tumor growth in WSU-DLCL2 non-Hodgkin's-lymphoma model with PNT-100 and vincristine (Example 7)", "format": "in vivo, mice", "description": "A non-Hodgkin's-lymphoma model (NHL) was used. The WSU-DLCL2 (Wayne State University diffuse large cell lymphoma) model is a very robust model of chemoresistant aggressive human diffuse large cell lymphoma. It was obtained from Dr. Ramzi Mohammad and Dr. Al-Katib and colleagues at the Karmanos Cancer Institute at Wayne State University. (See Al-Katib, A M, et al., Clin. Cancer Res. 4, 1305-1314 (1998); Mohammad, R, et al., Clin. Cancer Res. 8, 1277-1283 (2002); Mohammad, R M, et al., Mol. Cancer. Ther., 4, 13-21 (2005); Mohammad, R M, et al., Clin. Cancer Res. 6, 4950-4956, (2000).) The study was designed to administer five daily doses of 5 mg/kg PNT-100 (SEQ ID NO: 1251), and in certain cohorts, combination therapy with vincristine."}}}
{"substance": "Rituximab: human pharmaceutical grade rituximab (Biogen Idec-Genentech), antibody directed against CD20", "values": [{"measurement": "effect on tumor volume / time to 2000 mm^3", "setting": "Daudi xenografts", "value": "little effect"}, {"measurement": "complete regression of the tumor (shrinkage below measurable size for three consecutive time points), number of tumors", "setting": "WSU-DLCL2 xenografts", "value": "seven out of eight"}, {"measurement": "complete regression through the 81 day endpoint, number of tumors", "setting": "WSU-DLCL2 xenografts", "value": "four out of eight"}]}
{"substance": "PNT-100: PNT-100 oligonucleotide not methylated, bcl-2 oligonucleotide, SEQ ID NO:1251 (DNA CACGCACGCGCATCCCCGCCCGTG; sugars by position and backbone not given here; liposomal formulation)", "values": [{"measurement": "growth of tumors in mice", "setting": "[1]; 5 mg/kg PNT-100, alone or with vincristine", "value": "decreases the growth tumors"}, {"measurement": "weight loss in the animals", "setting": "[1]; after one dose, 5 mg/kg planned daily doses", "value": "noticeable weight loss"}, {"measurement": "effect on tumor volume / time to 2000 mm^3", "setting": "Daudi xenografts", "value": "little effect"}]}
